Calls of active or inactive are those of the source. No cut-off for these calls is given here.
Experiments:
Rattus norvegicus [1] = assay: Compound was tested for the inhibition of NT-induced hyperlocomotion at a dose of 80 mg/kg (ip); SI - Significant inhibition; type: functional, organism-based; design: dose 80 mg/kg
N1E-115 [2] = assay: Evaluated for its antagonistic activity against the NT-stimulated cyclic [3H]GMP formation in murine N1E-115 neuroblastoma cells; type: functional, cell-based, Mus musculus
[3] = molecular target: Neurotensin receptor type 1 (Mus musculus, UniProt O88319); assay: Inhibitory concentration required for the displacement of [3H]NT from neurotensin receptor in mouse; value ranges from 4-6 uM
[4] = Compound was evaluated for its ability to displace [3H]NT from the neurotensin receptor of bovine brain
Rattus norvegicus [5] = assay: Compound was tested for the inhibition of NT-induced hyperlocomotion at a dose of 120 mg/kg (ip); SI - Significant inhibition; type: functional, organism-based; design: dose 120 mg/kg
Rattus norvegicus [6] = assay: Compound was tested for the inhibition of NT-induced hyperlocomotion at a dose of 40 mg/kg (ip); NS - No significant inhibition; type: functional, organism-based; design: dose 40 mg/kg
[7] = molecular target: Neurotensin receptor (Homo sapiens) (UniProt O95665+P30989); assay: Inhibitory concentration required for the displacement of [3H]-NT from neurotensin receptor on human frontal cortex at conc. of 100 uM; NA - No activity; type: tissue-based
N1E-115 [8] = assay: Evaluated for the cyclic [3H]GMP formation in murine N1E-115 neuroblastoma cells in absence of neurotensin at conc. of 32 uM; NS - No significant activity; type: functional, cell-based; settings: Mus musculus
[9] = molecular target: Neurotensin receptor type 1 (Rattus norvegicus, UniProt P20789); assay: Inhibitory concentration required for the displacement of [3H]NT from neurotensin receptor in rat
Chain of Neurotensin receptor type 1 (Rattus norvegicus, UniProt P20789) (P20789 whole entry): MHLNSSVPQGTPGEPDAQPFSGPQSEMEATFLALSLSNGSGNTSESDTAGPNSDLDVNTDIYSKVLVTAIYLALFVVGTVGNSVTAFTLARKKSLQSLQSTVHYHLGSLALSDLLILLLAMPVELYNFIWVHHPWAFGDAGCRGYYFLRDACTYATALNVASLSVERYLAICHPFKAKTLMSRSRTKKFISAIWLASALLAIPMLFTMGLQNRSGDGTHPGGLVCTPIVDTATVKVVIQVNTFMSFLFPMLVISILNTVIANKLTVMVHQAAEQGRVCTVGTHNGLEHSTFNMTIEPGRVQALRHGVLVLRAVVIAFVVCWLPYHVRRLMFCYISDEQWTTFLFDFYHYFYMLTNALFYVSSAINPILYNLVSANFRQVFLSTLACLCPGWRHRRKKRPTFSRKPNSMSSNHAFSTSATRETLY

Chain of Neurotensin receptor type 1 (Mus musculus, UniProt O88319) (O88319 whole entry): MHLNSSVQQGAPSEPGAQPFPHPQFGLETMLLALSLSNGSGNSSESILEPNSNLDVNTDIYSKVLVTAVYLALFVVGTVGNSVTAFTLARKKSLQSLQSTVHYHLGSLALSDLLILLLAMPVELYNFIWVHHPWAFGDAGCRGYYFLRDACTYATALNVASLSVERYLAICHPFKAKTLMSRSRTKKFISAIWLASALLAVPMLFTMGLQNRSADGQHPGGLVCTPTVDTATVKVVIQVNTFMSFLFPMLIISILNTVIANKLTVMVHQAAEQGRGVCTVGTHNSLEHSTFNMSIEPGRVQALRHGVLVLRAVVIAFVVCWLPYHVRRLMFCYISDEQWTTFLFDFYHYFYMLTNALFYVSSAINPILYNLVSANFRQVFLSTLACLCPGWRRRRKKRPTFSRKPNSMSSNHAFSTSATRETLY
Chain of Neurotensin receptor (Homo sapiens) (O95665 whole entry, looked up): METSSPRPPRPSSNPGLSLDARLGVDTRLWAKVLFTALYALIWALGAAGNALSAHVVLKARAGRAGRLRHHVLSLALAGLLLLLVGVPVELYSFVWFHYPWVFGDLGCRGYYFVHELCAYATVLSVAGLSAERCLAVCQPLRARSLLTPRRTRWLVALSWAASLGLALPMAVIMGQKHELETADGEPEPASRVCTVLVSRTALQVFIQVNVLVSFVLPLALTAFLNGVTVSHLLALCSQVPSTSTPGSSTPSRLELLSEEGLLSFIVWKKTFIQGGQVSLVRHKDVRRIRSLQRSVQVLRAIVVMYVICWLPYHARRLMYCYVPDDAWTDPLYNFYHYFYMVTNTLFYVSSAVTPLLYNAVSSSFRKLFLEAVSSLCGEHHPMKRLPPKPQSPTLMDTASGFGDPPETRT
Chain of Neurotensin receptor (Homo sapiens) (P30989 whole entry, looked up): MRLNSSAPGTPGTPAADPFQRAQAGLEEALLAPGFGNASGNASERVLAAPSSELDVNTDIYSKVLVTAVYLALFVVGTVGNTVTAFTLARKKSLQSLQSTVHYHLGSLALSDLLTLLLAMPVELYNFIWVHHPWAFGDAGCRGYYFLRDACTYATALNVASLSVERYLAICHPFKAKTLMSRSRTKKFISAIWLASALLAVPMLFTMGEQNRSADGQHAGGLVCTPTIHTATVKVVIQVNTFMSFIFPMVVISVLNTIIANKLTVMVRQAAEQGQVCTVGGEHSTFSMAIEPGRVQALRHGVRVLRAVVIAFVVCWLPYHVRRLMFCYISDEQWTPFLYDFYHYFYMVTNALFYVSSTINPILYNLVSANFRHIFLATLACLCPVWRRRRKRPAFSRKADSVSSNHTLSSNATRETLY

Cc1ccc(S(=O)(=O)NCCNC2(c3ccccc3)OC(=O)c3ccccc32)cc1 (centres undefined)
inhibition (Rattus norvegicus [1]): Active | Ki (N1E-115 [2]): 4.4 µM | IC50 [3]: 6 µM | IC50 [4]: 5.5 µM | inhibition (Rattus norvegicus [5]): Active | inhibition (Rattus norvegicus [6]): inactive | inhibition [7]: inactive | Activity (N1E-115 [8]): inactive | IC50 [9]: 49 µM
